IC50 data for 21 molecules are collected here from patent publication US11020398B2, “Amino-pyrrolopyrimidinone compounds and methods of use thereof” (ArQule, Inc., priority 2016, dated 2021).

In this assay the target is phosphorylated form of full length BTK (active BTK) (Homo sapiens (Human), UniProt Q06187). Put plainly: Mobility shift assay (MSA, Caliper LabChip), active BTK assay. The format is biochemical. The settings on record: Assay type B (MSA using active BTK). As to the method:
The active BTK assay consists of phosphorylated form of full length BTK. […] The enzyme inhibitor complexes is incubated, before the kinase activation reaction is initiated.
Mobility Shift Assay (MSA)
The active BTK assay consisted of phosphorylated form of full length BTK. […] The enzyme inhibitor complexes was incubated for 30 minutes at the room temperature and the kinase activation reaction was initiated by the addition of 1 μM Srctide peptide substrate and […].

phosphorylated form of full length BTK (active BTK), sequence (Q06187 whole entry): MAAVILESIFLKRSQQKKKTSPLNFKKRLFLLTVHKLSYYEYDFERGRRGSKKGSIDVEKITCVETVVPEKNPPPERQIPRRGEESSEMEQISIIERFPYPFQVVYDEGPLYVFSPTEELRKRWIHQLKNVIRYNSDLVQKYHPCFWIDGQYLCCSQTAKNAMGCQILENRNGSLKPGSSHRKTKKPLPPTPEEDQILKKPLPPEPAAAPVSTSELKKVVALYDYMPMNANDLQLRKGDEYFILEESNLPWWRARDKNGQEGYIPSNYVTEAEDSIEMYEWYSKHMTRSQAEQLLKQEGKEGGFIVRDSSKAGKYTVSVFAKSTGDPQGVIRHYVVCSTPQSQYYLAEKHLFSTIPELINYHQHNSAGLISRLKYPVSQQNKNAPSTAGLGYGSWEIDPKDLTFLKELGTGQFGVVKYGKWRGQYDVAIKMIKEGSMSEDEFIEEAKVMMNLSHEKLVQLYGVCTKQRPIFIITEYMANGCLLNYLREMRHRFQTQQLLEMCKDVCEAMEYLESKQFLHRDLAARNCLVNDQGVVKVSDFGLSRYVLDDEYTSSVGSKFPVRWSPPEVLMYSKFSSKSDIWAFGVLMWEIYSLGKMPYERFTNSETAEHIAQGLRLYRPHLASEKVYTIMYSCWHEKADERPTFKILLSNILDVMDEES

For `N[C@H]1CC[C@@H](Nc2ncnc3[nH]cc(C(=O)c4cccc(Oc5ccccc5)c4)c23)CC1` [Compound I-131, (4-((cis-4-aminocyclohexyl)amino)-7H-pyrrolo[2,3-d]pyrimidin-5-yl)(3-phenoxyphenyl)methanone], the IC50 (commonly the concentration that inhibits the measured activity by half) is 3.8 nM.
In the case of `C[C@@H](O)[C@@H](CO)NC(=O)[C@@H]1CC[C@@H](Nc2ncnc3[nH]cc(C(=O)c4ccc(Oc5ccccc5)cc4)c23)CO1` [Compound I-175, (2S,5R)—N-((2R,3R)-1,3-dihydroxybutan-2-yl)-5-((5-(4-phenoxybenzoyl)-7H-pyrrolo[2,3-d]pyrimidin-4-yl)amino) tetrahydro-2H-pyran-2-carboxamide], the IC50 came out at 3.1 nM.
The figure for `O=C(c1ccc(Oc2ccccc2)cc1)c1c[nH]c2ncnc(N[C@@H]3CC[C@@H](C(=O)NC[C@@H](O)CO)OC3)c12` [Compound I-176, (2S,5R)—N—((R)-2,3-dihydroxypropyl)-5-((5-(4-phenoxybenzoyl)-7H-pyrrolo[2,3-d]pyrimidin-4-yl)amino)tetrahydro-2H-pyran-2-carboxamide] is 2.5 nM.
Then `CN(C)C[C@]1(O)CC[C@H](Nc2ncnc3[nH]cc(C(=O)c4ccc(Oc5ccccc5)cc4Cl)c23)CC1` [Compound I-177, (2-chloro-4-phenoxyphenyl)(4-((trans-4-((dimethylamino)methyl)-4-hydroxycyclohexyl)amino)-7H-pyrrolo[2,3-d]pyrimidin-5-yl)methanone], with 1.7 nM.
Consider `CN(C)C[C@]1(O)CC[C@@H](Nc2ncnc3[nH]cc(C(=O)c4ccc(Oc5ccccc5)cc4Cl)c23)CC1` [Compound I-178, (2-chloro-4-phenoxyphenyl)(4-((cis-4-((dimethylamino)methyl)-4-hydroxycyclohexyl)amino)-7H-pyrrolo[2,3-d]pyrimidin-5-yl)methanone], for which the half-maximal inhibitory concentration (IC50) came to 2.2 nM.
With `CN(C)CC(=O)N[C@H]1CC[C@@H](Nc2ncnc3[nH]cc(C(=O)c4ccc(Oc5ccccc5)cc4Cl)c23)CC1` [Compound I-181, N-(cis-4-((5-(2-chloro-4-phenoxybenzoyl)-7H-pyrrolo[2,3-d]pyrimidin-4-yl)amino)cyclohexyl)-2-(dimethylamino)acetamide], the IC50 worked out at 0.98 nM.
With `C[C@@H](O)[C@@H]1CC[C@@H](Nc2ncnc3[nH]cc(C(=O)c4ccc(Oc5cccc(F)c5)cc4Cl)c23)CO1` [Compound I-182, (2-chloro-4-(3-fluorophenoxy)phenyl)(4-(((3R,6S)-6-((R)-1-hydroxyethyl)tetrahydro-2H-pyran-3-yl)amino)-7H-pyrrolo[2,3-d]pyrimidin-5-yl)methanone], the IC50 was 1.5 nM.
Consider `C[C@@H](O)[C@@H]1CC[C@@H](Nc2ncnc3[nH]cc(C(=O)c4ccc(Oc5cccc(Cl)c5)cc4Cl)c23)CO1` [Compound I-183, (2-chloro-4-(3-chlorophenoxy)phenyl)(4-(((3R,6S)-6-((R)-1-hydroxyethyl)tetrahydro-2H-pyran-3-yl)amino)-7H-pyrrolo[2,3-d]pyrimidin-5-yl)methanone], for which the IC50 was determined as 2.2 nM.
The figure for `CC(C)(C)OC(=O)N[C@H]1CC[C@H](Nc2ncnc3[nH]cc(C(=O)c4ccc(Oc5ccccc5)cc4)c23)C1` [Compound I-184, tert-butyl ((1S,3S)-3-((5-(4-phenoxybenzoyl)-7H-pyrrolo[2,3-d]pyrimidin-4-yl)amino)cyclopentyl)carbamate] is 61 nM.
On to `CC(C)(C)OC(=O)N[C@H]1C[C@H](Nc2ncnc3[nH]cc(C(=O)c4ccc(Oc5ccccc5)cc4)c23)C1` [Compound I-185, tert-butyl (trans-3-((5-(4-phenoxybenzoyl)-7H-pyrrolo[2,3-d]pyrimidin-4-yl)amino)cyclobutyl)carbamate], for which the IC50 amounted to 57 nM.
As to `CC(C)(C)OC(=O)N[C@H]1C[C@@H](Nc2ncnc3[nH]cc(C(=O)c4ccc(Oc5ccccc5)cc4)c23)C1` [Compound I-186, tert-butyl (cis-3-((5-(4-phenoxybenzoyl)-7H-pyrrolo[2,3-d]pyrimidin-4-yl)amino)cyclobutyl)carbamate], the IC50 was determined as 12 nM.
On to `O=C(c1ccc(Oc2ccccc2)cc1)c1c[nH]c2ncnc(N[C@H]3C[C@H](CO)C3)c12` [Compound I-187, (4-((trans-3-(hydroxymethyl)cyclobutyl)amino)-7H-pyrrolo[2,3-d]pyrimidin-5-yl)(4-phenoxyphenyl)methanone], for which the IC50 came out at 4.2 nM.
As to `CC(C)(O)[C@@H]1CC[C@@H](Nc2ncnc3[nH]cc(C(=O)c4ccc(Oc5ccccc5)cc4Cl)c23)CO1` [Compound I-188, (2-chloro-4-phenoxyphenyl)(4-(((3R,6S)-6-(2-hydroxypropan-2-yl)tetrahydro-2H-pyran-3-yl)amino)-7H-pyrrolo[2,3-d]pyrimidin-5-yl)methanone], the concentration for half-maximal inhibition (IC50) stood at 1.7 nM.
`N[C@@H]1CC[C@@H](Nc2ncnc3[nH]cc(C(=O)c4ccc(Oc5ccccc5)cc4)c23)C1` [Compound I-189, (4-(((1R,3R)-3-aminocyclopentyl)amino)-7H-pyrrolo[2,3-d]pyrimidin-5-yl)(4-phenoxyphenyl)methanone]: the 50% inhibitory concentration (IC50) is 17 nM.
Take `N[C@H]1C[C@@H](Nc2ncnc3[nH]cc(C(=O)c4ccc(Oc5ccccc5)cc4)c23)C1` [Compound I-190, (4-((cis-3-aminocyclobutyl)amino)-7H-pyrrolo[2,3-d]pyrimidin-5-yl)(4-phenoxyphenyl)methanone]: the IC50 was determined as 17 nM.
The figure for `N[C@H]1C[C@H](Nc2ncnc3[nH]cc(C(=O)c4ccc(Oc5ccccc5)cc4)c23)C1` [Compound I-191, (4-((trans-3-aminocyclobutyl)amino)-7H-pyrrolo[2,3-d]pyrimidin-5-yl)(4-phenoxyphenyl)methanone] is 37 nM; for `CC(=O)N[C@@H]1CC[C@@H](Nc2ncnc3[nH]cc(C(=O)c4ccc(Oc5ccccc5)cc4)c23)C1` [Compound I-192, N-((1R,3R)-3-((5-(4-phenoxybenzoyl)-7H-pyrrolo[2,3-d]pyrimidin-4-yl)amino)cyclopentyl)acetamide] it is 4.4 nM.
Regarding `C[C@H](O)C(=O)N[C@H]1CC[C@@H](Nc2ncnc3[nH]cc(C(=O)c4ccc(Oc5ccccc5)cc4Cl)c23)CC1` [Compound I-193, (S)—N-(cis-4-((5-(2-chloro-4-phenoxybenzoyl)-7H-pyrrolo[2,3-d]pyrimidin-4-yl)amino)cyclohexyl)-2-hydroxypropanamide], the IC50 was found to be 1.2 nM.
Regarding `CC(C)(O)C(=O)N[C@H]1CC[C@@H](Nc2ncnc3[nH]cc(C(=O)c4ccc(Oc5ccccc5)cc4Cl)c23)CC1` [Compound I-194, N-(cis-4-((5-(2-chloro-4-phenoxybenzoyl)-7H-pyrrolo[2,3-d]pyrimidin-4-yl)amino)cyclohexyl)-2-hydroxy-2-methylpropanamide], the 50% inhibitory concentration (IC50) was determined as 1.5 nM.
As to `CC(=O)N[C@H](C)[C@@H]1CC[C@@H](Nc2ncnc3[nH]cc(C(=O)c4ccc(Oc5ccccc5)cc4Cl)c23)CO1` [Compound I-195, N—((R)-1-((2S,5R)-5-((5-(2-chloro-4-phenoxybenzoyl)-7H-pyrrolo[2,3-d]pyrimidin-4-yl)amino)tetrahydro-2H-pyran-2-yl)ethyl)acetamide], the IC50 is 2.2 nM.
Regarding `CC(=O)N[C@H]1C[C@@H](Nc2ncnc3[nH]cc(C(=O)c4ccc(Oc5ccccc5)cc4)c23)C1` [Compound I-196, N-(cis-3-((5-(4-phenoxybenzoyl)-7H-pyrrolo[2,3-d]pyrimidin-4-yl)amino)cyclobutyl)acetamide], the IC50 worked out at 3.2 nM.
